Assay results taken from US20240067693A1, “POLYPEPTIDES AND USES THEREOF” (MEDIMMUNE LIMITED, priority 2020, published 2024).
Numbered stars: 1 amine (or outer) side, 2 acyl side, 3 side chain; on linkers, the order of the positions; unused ones are H or OH. Bridge positions count the residues as written; N and C are the ends. Square brackets hold non-standard residues; d marks the D form. Side chains are listed from the residue outwards. Peptide text beside a SMILES is read from it. * marks the point of attachment. C18 diacid = O=C(O)CCCCCCCCCCCCCCCCC(=O)*; γGlu = O=C(O)[C@H](CCC(=O)[*:2])N[*:1]; Aib = CC(C)(N)C(=O)O

Legend:
[1] = target: T1, human calcitonin receptor (hCTR) (Homo sapiens, UniProt P30988); test: cAMP production in 1321N1 cells with stable recombinant expression of human calcitonin receptor (hCTR); assay type: cell-based; details: cAMP, 1321N1 cells, assay buffer with 0.1% BSA; read-out: EC50 (pM) hCTR
T1 construct: expressed in transfected cells
T1 sequence (P30988 25-474): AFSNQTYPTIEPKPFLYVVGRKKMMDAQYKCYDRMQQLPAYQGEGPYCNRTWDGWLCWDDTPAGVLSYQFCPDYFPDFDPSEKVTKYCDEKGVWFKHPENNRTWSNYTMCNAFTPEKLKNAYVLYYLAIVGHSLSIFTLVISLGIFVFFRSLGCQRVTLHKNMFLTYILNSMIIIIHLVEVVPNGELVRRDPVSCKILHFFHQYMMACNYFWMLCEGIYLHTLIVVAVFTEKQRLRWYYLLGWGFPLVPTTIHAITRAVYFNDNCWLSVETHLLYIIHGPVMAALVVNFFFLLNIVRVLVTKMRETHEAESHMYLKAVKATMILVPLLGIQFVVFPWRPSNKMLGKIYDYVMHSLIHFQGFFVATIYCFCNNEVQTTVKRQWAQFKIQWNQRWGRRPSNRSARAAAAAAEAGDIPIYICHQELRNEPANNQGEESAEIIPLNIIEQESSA
Outline: (§1)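 EC50 values come from 4-parameter logistic fits of HTRF cAMP signal, normalised to maximal calcitonin or amylin effect. Peptides were tested in duplicate for 30 min at RT in IBMX-containing (0.5 mM) BSA/HEPES buffer pH 7.4 on stable 1321N1 (human CTR, AMYR3) or HEK (rat CTR, AMYR3) lines.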

[2] = target: T2, human amylin receptor (calcitonin receptor co-expressed with receptor activity modifying protein, RAMP3) (hAMYR3) (Homo sapiens, UniProt O60896+P30988); test: cAMP production in 1321N1 cells with stable recombinant expression of human amylin receptor (hAMYR3); assay type: cell-based; details: for Ratio (selectivity hAMYR vs hCTR, ratio of EC50 values at the two receptors): EC50 hCTR / EC50 hAMYR3; for EC50: cAMP, 1321N1 cells, assay buffer with 0.1% BSA, read-out: EC50 (pM) hAMYR3
T2 construct: expressed in transfected cells
T2 sequence (P30988 25-474): T1 sequence (P30988 25-474)
T2 sequence (O60896 24-148 partner): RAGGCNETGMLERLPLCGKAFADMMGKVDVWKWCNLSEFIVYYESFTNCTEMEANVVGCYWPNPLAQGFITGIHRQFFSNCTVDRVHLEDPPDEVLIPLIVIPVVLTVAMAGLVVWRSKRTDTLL
Outline: as §1

| SMILES | EC50 [1] [pM] | Ratio (selectivity hAMYR vs hCTR, ratio of EC50 values at the two receptors) [2] | EC50 [2] [pM] |
| --- | --- | --- | --- |
| CC[C@H](C)[C@H](NC(=O)[C@@H]1CCCN1C(=O)CNC(=O)[C@H](Cc1ccccc1)NC(=O)[C@H](CC(N)=O)NC(=O)C(C)(C)NC(=O)[C@H](CO)NC(=O)[C@H](CO)NC(=O)[C@H](Cc1c[nH]cn1)NC(=O)[C@@H](NC(=O)[C@H](CC(C)C)NC(=O)[C@H](Cc1ccccc1)NC(=O)[C@H](CC(N)=O)NC(=O)[C@H](C)NC(=O)[C@H](CC(C)C)NC(=O)[C@H](CCCNC(=N)N)NC(=O)[C@H](CCC(N)=O)NC(=O)[C@@H](NC(=O)[C@H](C)NC(=O)[C@@H]1CSSC[C@H](NC(=O)[C@@H](N)CCCCNC(=O)CC[C@H](NC(=O)CC[C@H](NC(=O)CCCCCCCCCCCCCCCCC(=O)O)C(=O)O)C(=O)O)C(=O)N[C@@H](CC(N)=O)C(=O)N[C@@H]([C@@H](C)O)C(=O)N[C@@H](C)C(=O)N[C@@H]([C@@H](C)O)C(=O)N1)[C@@H](C)O)C(C)C)C(=O)N[C@@H](CC(C)C)C(=O)N1CCC[C@H]1C(=O)N1CCC[C@H]1C(=O)N[C@H](C(=O)N[C@@H](CCC(=O)O)C(=O)N[C@H](C(=O)NCC(=O)N[C@@H](CO)C(=O)N[C@@H](CC(N)=O)C(=O)N[C@H](C(=O)N[C@@H](Cc1ccc(O)cc1)C(N)=O)[C@@H](C)O)C(C)C)[C@@H](C)O [Peptide 49, K(γE-γE-C18diacid)[CNTATC]ATQRLANFLVHSS(Aib)NFGPILPPTEVGSNTY-amide] (H-K([γGlu-γGlu-C18 diacid])CNTATCATQRLANFLVHSS[Aib]NFGPILPPTEVGSNTY-NH2; disulfide 2-7) | 4140 | 12 | 334 |
| CC[C@H](C)[C@H](NC(=O)[C@@H]1CCCN1C(=O)CNC(=O)[C@H](Cc1ccccc1)NC(=O)[C@H](CC(N)=O)NC(=O)C(C)(C)NC(=O)[C@H](CO)NC(=O)[C@H](CO)NC(=O)[C@H](Cc1c[nH]cn1)NC(=O)[C@H](CO)NC(=O)[C@H](CC(C)C)NC(=O)[C@H](Cc1ccccc1)NC(=O)[C@H](CC(N)=O)NC(=O)[C@H](C)NC(=O)[C@H](CC(C)C)NC(=O)[C@H](CCCNC(=N)N)NC(=O)[C@H](CCC(N)=O)NC(=O)[C@@H](NC(=O)[C@H](C)NC(=O)[C@@H]1CSSC[C@H](NC(=O)[C@H](CCCCN)NC(=O)[C@@H](N)CCCCNC(=O)CC[C@H](NC(=O)CCCCCCCCCCCCCCCCC(=O)O)C(=O)O)C(=O)N[C@@H](CC(N)=O)C(=O)N[C@@H]([C@@H](C)O)C(=O)N[C@@H](C)C(=O)N[C@@H]([C@@H](C)O)C(=O)N1)[C@@H](C)O)C(=O)N[C@@H](CC(C)C)C(=O)N1CCC[C@H]1C(=O)N1CCC[C@H]1C(=O)N[C@H](C(=O)N[C@@H](Cc1c[nH]cn1)C(=O)N[C@H](C(=O)NCC(=O)N[C@@H](CO)C(=O)N[C@@H](CC(N)=O)C(=O)N[C@H](C(=O)N[C@@H](Cc1ccc(O)cc1)C(N)=O)[C@@H](C)O)C(C)C)[C@@H](C)O [Peptide 51, K(γE-C18diacid)K[CNTATC]ATQRLANFLSHSS(Aib)NFGPILPPTHVGSNTY-amide] (H-K([γGlu-C18 diacid])KCNTATCATQRLANFLSHSS[Aib]NFGPILPPTHVGSNTY-NH2; disulfide 3-8; N-terminus assumed) | 1640 | 13 | 126 |
| CC[C@H](C)[C@H](NC(=O)[C@@H]1CCCN1C(=O)CNC(=O)[C@H](Cc1ccccc1)NC(=O)[C@H](CC(N)=O)NC(=O)C(C)(C)NC(=O)[C@H](CO)NC(=O)[C@H](CO)NC(=O)[C@H](Cc1c[nH]cn1)NC(=O)C(C)(C)NC(=O)[C@H](CC(C)C)NC(=O)[C@H](Cc1ccccc1)NC(=O)[C@H](CC(N)=O)NC(=O)[C@H](C)NC(=O)[C@H](CC(C)C)NC(=O)[C@H](CCCNC(=N)N)NC(=O)[C@H](CCC(N)=O)NC(=O)[C@@H](NC(=O)[C@H](C)NC(=O)[C@@H]1CSSC[C@H](NC(=O)[C@H](CCCCN)NC(=O)[C@@H](N)CCCCNC(=O)CC[C@H](NC(=O)CCCCCCCCCCCCCCCCC(=O)O)C(=O)O)C(=O)N[C@@H](CC(N)=O)C(=O)N[C@@H]([C@@H](C)O)C(=O)N[C@@H](C)C(=O)N[C@@H]([C@@H](C)O)C(=O)N1)[C@@H](C)O)C(=O)N[C@@H](CC(C)C)C(=O)N1CCC[C@H]1C(=O)N1CCC[C@H]1C(=O)N[C@H](C(=O)N[C@@H](CC(N)=O)C(=O)N[C@H](C(=O)NCC(=O)N[C@@H](CO)C(=O)N[C@@H](CC(N)=O)C(=O)N[C@H](C(=O)N1CCC[C@H]1C(N)=O)[C@@H](C)O)C(C)C)[C@@H](C)O [Peptide 87, K(γE-C18diacid)K[CNTATC]ATQRLANFL(Aib)HSS(Aib)NFGPILPPTNVGSNTP-amide] (H-K([γGlu-C18 diacid])KCNTATCATQRLANFL[Aib]HSS[Aib]NFGPILPPTNVGSNTP-NH2; disulfide 3-8; N-terminus assumed) | 74 | 1 | 71 |

Other lines, results leading:

| EC50 [1] [pM] | Ratio (selectivity hAMYR vs hCTR, ratio of EC50 values at the two receptors) [2] | EC50 [2] [pM] | SMILES |
| --- | --- | --- | --- |
| 6940 | 11.7 | 592 | CC[C@H](C)[C@H](NC(=O)[C@@H]1CCCN1C(=O)CNC(=O)[C@H](Cc1ccccc1)NC(=O)[C@H](CC(N)=O)NC(=O)[C@H](CC(N)=O)NC(=O)[C@H](CO)NC(=O)[C@H](CO)NC(=O)[C@H](Cc1c[nH]cn1)NC(=O)C(C)(C)NC(=O)[C@H](CC(C)C)NC(=O)[C@H](Cc1ccccc1)NC(=O)[C@H](CC(N)=O)NC(=O)[C@H](C)NC(=O)[C@H](CC(C)C)NC(=O)[C@H](CCCNC(=N)N)NC(=O)[C@H](CCC(N)=O)NC(=O)[C@@H](NC(=O)[C@H](C)NC(=O)[C@@H]1CSSC[C@H](NC(=O)[C@H](CCCCN)NC(=O)CNC(=O)CNC(=O)[C@@H](N)CCCCNC(=O)CC[C@H](NC(=O)CCCCCCCCCCCCCCCCC(=O)O)C(=O)O)C(=O)N[C@@H](CC(N)=O)C(=O)N[C@@H]([C@@H](C)O)C(=O)N[C@@H](C)C(=O)N[C@@H]([C@@H](C)O)C(=O)N1)[C@@H](C)O)C(=O)N[C@@H](CC(C)C)C(=O)N1CCC[C@H]1C(=O)N1CCC[C@H]1C(=O)N[C@H](C(=O)N[C@@H](CC(N)=O)C(=O)N[C@H](C(=O)NCC(=O)N[C@@H](CO)C(=O)N[C@@H](CC(N)=O)C(=O)N[C@H](C(=O)N[C@@H](Cc1ccc(O)cc1)C(N)=O)[C@@H](C)O)C(C)C)[C@@H](C)O [Peptide 143] (H-K([γGlu-C18 diacid])GGKCNTATCATQRLANFL[Aib]HSSNNFGPILPPTNVGSNTY-NH2; disulfide 5-10; N-terminus assumed) |
| 728 | 3.8 | 191 | CC[C@H](C)[C@H](NC(=O)[C@@H]1CCCN1C(=O)CNC(=O)[C@H](Cc1ccccc1)NC(=O)[C@H](CC(N)=O)NC(=O)[C@H](CC(N)=O)NC(=O)[C@H](CO)NC(=O)[C@H](CO)NC(=O)[C@H](Cc1c[nH]cn1)NC(=O)C(C)(C)NC(=O)[C@H](CC(C)C)NC(=O)[C@H](Cc1ccccc1)NC(=O)[C@H](CC(N)=O)NC(=O)[C@H](C)NC(=O)[C@H](CC(C)C)NC(=O)[C@H](CCCNC(=N)N)NC(=O)[C@H](CCC(N)=O)NC(=O)[C@@H](NC(=O)[C@H](C)NC(=O)[C@@H]1CSSC[C@H](NC(=O)[C@H](CCCCN)NC(=O)[C@@H](N)CCCCNC(=O)CC[C@H](NC(=O)CCCCCCCCCCCCCCCCC(=O)O)C(=O)O)C(=O)N[C@@H](CC(N)=O)C(=O)N[C@@H]([C@@H](C)O)C(=O)N[C@@H](C)C(=O)N[C@@H]([C@@H](C)O)C(=O)N1)[C@@H](C)O)C(=O)N[C@@H](CC(C)C)C(=O)N1CCC[C@H]1C(=O)N1CCC[C@H]1C(=O)N[C@H](C(=O)N[C@@H](CC(N)=O)C(=O)N[C@H](C(=O)NCC(=O)N1CCC[C@H]1C(=O)N[C@@H](CC(N)=O)C(=O)N[C@H](C(=O)N[C@@H](Cc1ccc(O)cc1)C(N)=O)[C@@H](C)O)C(C)C)[C@@H](C)O [Peptide 148] (H-K([γGlu-C18 diacid])KCNTATCATQRLANFL[Aib]HSSNNFGPILPPTNVGPNTY-NH2; disulfide 3-8) |
| 2220 | 7.9 | 281 | CC[C@H](C)[C@H](NC(=O)[C@@H]1CCCN1C(=O)CNC(=O)[C@H](Cc1ccccc1)NC(=O)[C@H](CC(N)=O)NC(=O)[C@H](CC(N)=O)NC(=O)[C@H](CO)NC(=O)[C@H](CO)NC(=O)[C@H](Cc1c[nH]cn1)NC(=O)C(C)(C)NC(=O)[C@H](CC(C)C)NC(=O)[C@H](Cc1ccccc1)NC(=O)[C@H](CC(N)=O)NC(=O)[C@H](C)NC(=O)[C@H](CC(C)C)NC(=O)[C@H](CCCNC(=N)N)NC(=O)[C@H](CCC(N)=O)NC(=O)[C@@H](NC(=O)[C@H](C)NC(=O)[C@@H]1CSSC[C@H](NC(=O)[C@H](CCCCN)NC(=O)[C@@H](N)CCCCNC(=O)CC[C@H](NC(=O)CCCCCCCCCCCCCCCCC(=O)O)C(=O)O)C(=O)N[C@@H](CC(N)=O)C(=O)N[C@@H]([C@@H](C)O)C(=O)N[C@@H](C)C(=O)N[C@@H]([C@@H](C)O)C(=O)N1)[C@@H](C)O)C(=O)N[C@@H](CC(C)C)C(=O)N1CCC[C@H]1C(=O)N1CCC[C@H]1C(=O)N[C@H](C(=O)N1CCC[C@H]1C(=O)N[C@H](C(=O)NCC(=O)N[C@@H](CO)C(=O)N[C@@H](CC(N)=O)C(=O)N[C@H](C(=O)N[C@@H](Cc1ccc(O)cc1)C(N)=O)[C@@H](C)O)C(C)C)[C@@H](C)O [Peptide 134] (H-K([γGlu-C18 diacid])KCNTATCATQRLANFL[Aib]HSSNNFGPILPPTPVGSNTY-NH2; disulfide 3-8; N-terminus assumed) |
